Data on 8 compounds can be found in paper PMC11137182, “Selective and brain-penetrant ACSS2 inhibitors target breast cancer brain metastatic cells” (Frontiers in Pharmacology, 2024).

One data set relates to MDA-MB-231BR cells. Description: Clonogenic survival assay. The conditions noted are these: 100 μM, 48 h treatment, 10 days growth. It is filed as cell-based. On the procedure:
Triple-negative brain trophic cells MDA-MB-231BR and 4T1BR cells were a kind gift from Dr. Patricia Steeg (Center for Cancer Research, National Cancer Institute) ([Achrol et al., 2019]). Both cell lines were cultured in DMEM supplemented with 10% fetal bovine serum (FBS), 5% 10,000 Units/mL Penicillin-10,000 μg/mL Streptomycin, and 5% 200 mM L-Glutamine. For crystal violet staining, 5 × 10^4 cells were plated and subjected to the treatments as described in the individual figures and then stained with 0.5% crystal violet prepared in a 1:1 methanol-water solution followed by PBS washes. ACSS2 inhibitors were dissolved in 100% ultra-pure DMSO.
To assess clonogenic survival, 1 × 10^5 cells were seeded into a 6-well plate until 70%–80% confluency and treated for 48 h with analogs at 100 uM (unless otherwise stated in the figure legend). After 48 h, cells were trypsinized and counted using hemocytomer, and 1 × 10^4 cells per treatment were plated into a 6-well plate with fresh culture medium and allowed to grow for 10 days. Following 10-day incubation, cells were washed twice with PBS, stained with crystal violet for 30 min, and washed with dH2O twice. Colonies >50mircons were counted. For crystal violet staining, 0.5% crystal violet was prepared in a 1:1 methanol-water solution.

In data set [1] the target is T1, ACSS2 (Homo sapiens, UniProt Q9NR19).
T1 construct: His-tag (N); His-tag (C); made in house; host or cells: E. coli BL21 (DE3) RIL
T1 sequence (Q9NR19 whole entry): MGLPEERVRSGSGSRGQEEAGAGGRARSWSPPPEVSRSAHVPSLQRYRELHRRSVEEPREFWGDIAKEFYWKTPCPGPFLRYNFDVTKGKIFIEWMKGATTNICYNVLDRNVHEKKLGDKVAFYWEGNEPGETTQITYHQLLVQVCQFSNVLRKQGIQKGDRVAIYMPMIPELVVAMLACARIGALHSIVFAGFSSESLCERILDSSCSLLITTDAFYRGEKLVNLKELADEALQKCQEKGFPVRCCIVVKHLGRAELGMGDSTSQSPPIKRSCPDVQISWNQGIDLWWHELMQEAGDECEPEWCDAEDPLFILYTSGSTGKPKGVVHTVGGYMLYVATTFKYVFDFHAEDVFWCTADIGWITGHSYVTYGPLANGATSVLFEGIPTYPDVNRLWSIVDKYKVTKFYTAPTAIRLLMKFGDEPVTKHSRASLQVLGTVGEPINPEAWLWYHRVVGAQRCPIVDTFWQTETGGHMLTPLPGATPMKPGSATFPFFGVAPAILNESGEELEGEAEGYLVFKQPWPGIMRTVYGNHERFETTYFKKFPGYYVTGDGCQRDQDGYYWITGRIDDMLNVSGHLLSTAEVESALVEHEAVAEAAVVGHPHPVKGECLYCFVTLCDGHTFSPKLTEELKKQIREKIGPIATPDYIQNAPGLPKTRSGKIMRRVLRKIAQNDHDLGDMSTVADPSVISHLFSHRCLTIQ
The experiment in a line: SPR binding to immobilized ACSS2. To be noted: mean; for koff / kon: 1:1 binding model. On the procedure:
Overproduction of ACSS2 was achieved using a prokaryotic expression system. […] The bacterial expressions were then spun down, the supernatant discarded, and the pellets resuspended in 50 mM Tris HCl pH8.0, 800 mM NaCl, 5 mM Imidazole, 2 mM MgCl2, 10% Glycerol, 0.1 mg/mL Lysozyme, 1 mM Protease inhibitor (PMSF). After the cells were lysed via sonication, the sample was subjected to ultracentrifugation, and the clarified lysate was applied to a 5 mL Talon cobalt resin affinity column (Clonetech Laboratories, Mountain View, CA). The bound protein was washed with 300 mL wash buffer 1 (20 mM Tris HCl pH8.0, 800 mM NaCl, 15 mM Imidazole, 5 mM MgCl2, 10% Glycerol, 0.1% CHAPS) and 300 mL wash buffer 2 (20 mM Tris HCl pH8.0, 400 mM NaCl, 18 mM Imidazole, 5 mM MgCl2, 10% Glycerol) prior elution with 20 mM Tris HCl pH8.0, 400 mM NaCl, 300 mM Imidazole, 2 mM MgCl2, 5% Glycerol. Eluted ACSS2 was then dialyzed overnight into 20 mM Tris HCl pH8.0, 150 mM NaCl, 5% Glycerol, concentrated and applied to a Superdex S-200 (16/600) using the same buffer without Glycerol. ACSS2 fractions were pooled, concentrated to 3 mg/mL, aliquoted, and stored at −80°C. hACSS1 was obtained from a commercial vendor (www.mybiosource.com).
All binding assays were performed on a ProteOn XPR36 SPR Protein Interaction Array System (Bio-Rad Laboratories, Hercules, CA, United States). The instrument temperature was set at 25°C for all kinetic analyses. ProteOn GLH sensor chips were preconditioned with two short pulses each (10 s) of 50 mM NaOH, 100 mM HCl, and 0.5% sodium […]. Then, the system was equilibrated with running buffer (1x PBS pH 7.4, 3% DMSO, and 0.005% polysorbate 20). The surface of a GLH sensor chip was activated with a 1:100 dilution of a 1:1 mixture of 1-ethyl-3-(3-dimethylaminopropyl) carbodiimide hydrochloride (0.2 M) and sulfo-N-hydroxysuccinimide (0.05 M). Immediately after chip activation, the human ACSS2 or hACSS1 proteins were prepared at a concentration of 10 μg/mL in 10 mM sodium acetate, pH 5.5, and injected across ligand flow channels for 5 min at a flow rate of 30 μL/min. Then, after unreacted protein had been washed out, excess active ester groups on the sensor surface were capped by a 5 min injection of 1M ethanolamine HCl (pH 8.0) at a flow rate of 5 μL/min. A reference surface was similarly created by immobilizing a nonspecific protein (IgG b12 anti-HIV-1 gp120; was obtained through the NIH AIDS Reagent Program, Division of AIDS, NIAID, NIH: Anti-HIV-1 gp120 Monoclonal (IgG1 b12) from Dr. Dennis Burton and Carlos Barbas) and was used as a background to correct nonspecific binding. […] Data were analyzed using the ProteOn Manager Software version 3.0 (Bio-Rad). The responses from the reference flow cell were subtracted to account for the nonspecific binding and injection artifacts. Experimental data were fitted to a simple 1:1 binding model. Experiments were performed in triplicate to detect kinetic and equilibrium dissociation constants (KD).
On the technique in general: SPR reads the build-up and loss of mass on a sensor chip optically.

Data set [2] is described as follows: Human liver microsome stability. The conditions noted are these: for half-life: Human Liver Microsome Stability T1/2, human liver microsomes. In general terms: Microsomes from liver hold many membrane-bound enzymes, among them those of drug oxidation.
The target in data set [3] is T1, ACSS2. The experiment in a line: Fluorescence polarization-based ACSS2 biochemical assay (ATP to AMP conversion). To be noted: 100 nM ACSS2, triplicate, ± SD; read-out: IC50, inhibition of ATP to AMP conversion of ACSS2. On the procedure: ACSS2 enzyme activity was measured using the TranScreener AMP^2/GMP^2 Assay Kit—FP Readout assay (BellBrook Labs). The assay was performed in white, opaque, 96-well plates. […] ACSS2 was used in assay buffer (30 mM HEPES, pH 7.4, 140 mM NaCl, 2 mM MgCl2, 5 mM sodium acetate, 2 mM DTT, 0.05% CHAPS). Substrate mix was added, followed by a 60-min incubation. Final substrate concentrations were 5 mM acetate, 50 μM ATP, and 5 μM CoA. After incubation, conjugated AMP antibody and AMP tracer were added according to the methods described by BellBrook Labs. After 30 min, the FP signal was measured using a Tecan Spark multimode microplate reader. In the analysis, data were normalized to represent the percentage inhibition of ATPase activity.
Background: Polarisation of emitted light reports the rotation of a fluorescent probe.

A further data set deals with MDR1 (P-gp). The experiment in a line: Bi-directional permeability across MDR1-MDCK cell monolayer (BBB assay). It is filed as in vitro ADME, canine. To be noted: dog; MDR1-MDCK I monolayer, A to B. An excerpt:
This assay provides the apparent permeability coefficient (Papp), efflux ratio, and % recovery to assess compound permeation.

The next data set deals with FASN. The experiment in a line: Immunoblot of FASN protein levels. Format: cell-based. The conditions noted are these: MDA-MB-231BR cells, 24 h. On the procedure: Immunoblotting protocols have been previously described. Briefly, cell lysates from one to five x 10^6 cells were prepared in radioimmune precipitation assay buffer (150 mM NaCl, 1% NP40, 0.5% DOC, 50 mM Tris HCL at pH 8, 0.1% SDS, 10% glycerol, 5 mM EDTA, 20 mM NaF, and 1 mM Na3VO4) supplemented with 1 μg/mL each of pepstatin, leupeptin, aprotinin, and 200 μg/mL PMSF. Lysates were cleared by centrifugation at 16,000 x g for 15 min at 4°C and analyzed by SDS-PAGE and autoradiography with chemiluminescence. Proteins were analyzed by immunoblotting using primary antibodies indicated above.

The mark [4] stands for this setting: 25°C, Langmuir isotherm equilibrium fit, n=3, read-out: KD equilibrium.
Setting [5] is: global fit, n=3, read-out: KD kinetic/global.

Where two headings read alike, the source gives them in different places.

On to `C[C@H](N)C(=O)N1CCCC(c2ccccc2)(c2ccccc2)C1` [AD-1363], for which, in the data set with MDA-MB-231BR cells, the clonogenic survival entry is listed as “significant reduction in clonogenic survival”.

As for `O=C(CCN1CCCC(c2ccccc2)(c2ccccc2)C1)NC1CC1` [AD-2441], in the data set on MDA-MB-231BR cells, the clonogenic survival entry was “significantly reduce clonogenic survival”.

As usually defined, the koff is the rate constant with which the complex falls apart. One may read the kon as a measure of how fast the partners come together. By CLint scaled is commonly meant a measure of how fast metabolising enzymes remove a compound, apart from limits set by blood flow. The low end stands for greater metabolic stability, the high end for faster metabolism. For orientation: microsomal CLint means the rate of metabolic loss divided by the concentration. A higher microsomal CLint goes with faster metabolism. Usually half-life stands for the time in which the quantity being followed falls by half. Low values mean rapid decline, high ones slow decline. `Cc1cccn2c(CC(=O)NCCC(c3ccccc3)c3ccco3)cnc12` (stereo not shown) [AD-3766]: on ACSS2 [1] (n=3, read-out: koff), the dissociation rate constant (koff) is 0.359 s⁻¹. On ACSS2 [1] (n=3, read-out: kon), the on-rate (kon) was 5010 M⁻¹ s⁻¹. In addition, the Kd on ACSS2 [1] (setting [4]) stood at 70.6 µM. Besides, the Kd at ACSS2 [1] (setting [5]) was 77.6 µM. The clonogenic survival result in the data set on MDA-MB-231BR cells is “significant reduction in clonogenic survival”. In data set [2] (human liver microsomes), the “Remaining (T=60min)” value is listed as 0.0005 and the “Remaining (NCF=60min)” value was found to be 0.9639. Besides, in data set [2] (human, liver microsomes), the CLint scaled was determined as 1360 mL/min/kg, the “Human Liver Microsome Stability T1/2” value came out at 54 s, the intrinsic metabolic clearance (microsomal CLint) came out at 1520 µL/min/mg and the half-life was found to be 54.8 s.

As usually defined, the IC50 is the midpoint of a concentration-inhibition curve. As to `CN1CCC(O)(C(=O)NCCc2ccccc2Oc2ccccc2)CC1` [AD-7346], the off-rate constant (koff) at ACSS2 [1] (n=3, read-out: koff) turned out to be 0.399 s⁻¹. Also, on ACSS2 [1] (n=3, read-out: kon), the kon is 10100 M⁻¹ s⁻¹. Besides, the Kd on ACSS2 [1] (setting [4]) turned out to be 39.8 µM; on ACSS2 [1] (setting [5]), 49.4 µM. On ACSS2 [3], the half-maximal inhibitory concentration (IC50) is 2.03 ± 0.21 µM.

As for `O=C(O)Cc1ccccc1Nc1c(Cl)cccc1Cl` [Diclofenac, reference compound], in data set [2] (human liver microsomes), the “Remaining (T=60min)” value turned out to be 0.00044 and the “Remaining (NCF=60min)” value came out at 0.8763. In data set [2] (human, liver microsomes), this compound returned a CLint scaled of 236 mL/min/kg, a microsomal CLint of 262 µL/min/mg and a half-life of 318 s.

As usually defined, the Papp A→B is how fast a substance crosses the layer from the apical side. A higher Papp A→B goes with ready permeation. As for `COCCc1ccc(OCC(O)CNC(C)C)cc1` (stereo not shown) [Metoprolol, reference compound], the Papp A→B in the data set on MDR1 (P-gp) came out at 12.9 ×10⁻⁶ cm/s.

In the case of `C[C@]12CC[C@H]3[C@@H](CCC4=CC(=O)CC[C@@]43C)[C@@H]1CC[C@@H]2O` [Testosterone, reference compound], in data set [2] (human liver microsomes), the “Remaining (T=60min)” value worked out at 0.06959 and the “Remaining (NCF=60min)” value is recorded as 0.8976. Further, in data set [2] (human liver microsomes, scaled), the “CLint(liver)” value amounted to 80.3781 mL/min/kg.

For the compound `COCCNC(=O)Nc1ccc2nc(-c3cccs3)c(-c3cccs3)nc2c1` [VY-3-249, reference compound], on ACSS2 [1] (n=3), the koff was 0.105 s⁻¹ and the kon was 1800 M⁻¹ s⁻¹. For the same compound, at ACSS2 [1] (setting [4]), the Kd was 53.2 µM. On ACSS2 [1] (setting [5]), the Kd came to 66 µM. The half-inhibitory concentration (IC50) at ACSS2 [3] was 1.2 ± 0.49 µM. Further, the clonogenic survival entry in the data set on MDA-MB-231BR cells is given as “significantly reduce clonogenic survival”. Also, the “protein levels of FASN” value with FASN was “reduced protein levels of FASN”.
